Here are results for 22 molecules from patent US8053553B2, “Targeting host proteinases as a therapeutic strategy against viral and bacterial pathogens” (Socpra Sciences Sante Et Humaines, priority 2007, dated 2011).

Non-standard residues stand in square brackets, D forms with d. Residues, ends and D or L forms follow the SMILES beside them. Nle = CCCC[C@H](N)C(=O)O; Ahx = NCCCCCC(=O)O; βAla = NCCC(=O)O

In the assay the target is T1, furin (Homo sapiens, UniProt P09958).
T1 construct: made in house; host or cells: Drosophila S2 cells (Invitrogen expression system)
T1 sequence (P09958 108-794 limits assumed): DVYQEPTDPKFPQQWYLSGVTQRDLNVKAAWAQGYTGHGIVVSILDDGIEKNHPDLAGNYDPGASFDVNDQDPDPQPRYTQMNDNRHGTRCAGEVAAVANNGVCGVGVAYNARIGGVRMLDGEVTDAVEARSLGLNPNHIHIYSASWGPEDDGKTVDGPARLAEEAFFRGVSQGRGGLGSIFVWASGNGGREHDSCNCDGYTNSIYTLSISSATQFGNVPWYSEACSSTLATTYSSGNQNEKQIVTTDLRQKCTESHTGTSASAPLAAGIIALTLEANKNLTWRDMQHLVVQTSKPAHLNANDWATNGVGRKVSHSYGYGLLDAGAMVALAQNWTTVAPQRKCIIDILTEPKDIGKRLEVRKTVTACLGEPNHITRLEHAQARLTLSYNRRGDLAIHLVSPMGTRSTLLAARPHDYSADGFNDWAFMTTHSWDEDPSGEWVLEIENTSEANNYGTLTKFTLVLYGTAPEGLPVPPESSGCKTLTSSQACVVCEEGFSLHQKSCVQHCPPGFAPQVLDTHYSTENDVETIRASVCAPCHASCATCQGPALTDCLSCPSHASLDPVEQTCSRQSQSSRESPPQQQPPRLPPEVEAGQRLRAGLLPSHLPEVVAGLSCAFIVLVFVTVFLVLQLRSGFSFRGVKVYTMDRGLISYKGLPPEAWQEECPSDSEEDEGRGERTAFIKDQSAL
Description: biochemical. The conditions noted are these: furin, Pyr-RTKR-AMC substrate; optimization of the inhibitory peptides (Table 3); read-out: Ki.
As for `C[C@H](NC(=O)[C@H](CCCNC(=N)N)NC(=O)[C@H](CCC(N)=O)NC(=O)[C@@H]1CCCN1C(=O)[C@@H](N)[C@@H](C)O)C(=O)N[C@@H](CCCNC(=N)N)C(=O)N[C@@H](CCCNC(=N)N)C(=O)N[C@@H](CCCNC(=N)N)C(=O)N[C@@H](CCCCN)C(=O)N[C@@H](CCCCN)C(=O)N[C@@H](CCCNC(=N)N)C(=O)N[C@@H](CCC(=O)O)C(N)=O` (H-TPQRARRRKKRE-NH2), the Ki (usually the dissociation constant of the complex between target and ligand, obtained from inhibition or displacement) amounted to 103 nM.
With `C[C@H](NC(=O)[C@H](CCCNC(=N)N)NC(=O)[C@H](CCC(N)=O)NC(=O)[C@@H]1CCCN1C(=O)[C@@H](N)[C@@H](C)O)C(=O)N[C@@H](CCCNC(=N)N)C(=O)N[C@@H](CCCNC(=N)N)C(=O)N[C@@H](CCCNC(=N)N)C(=O)N[C@@H](CCCCN)C(=O)N[C@@H](CCCCN)C(=O)N[C@@H](CCCNC(=N)N)C(=O)N[C@@H](Cc1ccccc1)C(N)=O` (H-TPQRARRRKKRF-NH2) the figure was 44 nM; with `C[C@H](NC(=O)[C@H](CCCNC(=N)N)NC(=O)[C@H](CCC(N)=O)NC(=O)[C@@H]1CCCN1C(=O)[C@@H](N)[C@@H](C)O)C(=O)N[C@@H](CCCNC(=N)N)C(=O)N[C@@H](CCCNC(=N)N)C(=O)N[C@@H](CCCNC(=N)N)C(=O)N[C@@H](CCCCN)C(=O)N[C@@H](CCCCN)C(=O)N[C@@H](CCCNC(=N)N)C(=O)N[C@@H](Cc1c[nH]cn1)C(N)=O` (H-TPQRARRRKKRH-NH2), over 100 nM.
Turning to `CC[C@H](C)[C@H](NC(=O)[C@H](CCCNC(=N)N)NC(=O)[C@H](CCCCN)NC(=O)[C@H](CCCCN)NC(=O)[C@H](CCCNC(=N)N)NC(=O)[C@H](CCCNC(=N)N)NC(=O)[C@H](CCCNC(=N)N)NC(=O)[C@H](C)NC(=O)[C@H](CCCNC(=N)N)NC(=O)[C@H](CCC(N)=O)NC(=O)[C@@H]1CCCN1C(=O)[C@@H](N)[C@@H](C)O)C(N)=O` (H-TPQRARRRKKRI-NH2), the inhibition constant Ki is over 100 nM.
With `C[C@H](NC(=O)[C@H](CCCNC(=N)N)NC(=O)[C@H](CCC(N)=O)NC(=O)[C@@H]1CCCN1C(=O)[C@@H](N)[C@@H](C)O)C(=O)N[C@@H](CCCNC(=N)N)C(=O)N[C@@H](CCCNC(=N)N)C(=O)N[C@@H](CCCNC(=N)N)C(=O)N[C@@H](CCCCN)C(=O)N[C@@H](CCCCN)C(=O)N[C@@H](CCCNC(=N)N)C(=O)N[C@@H](CCCCN)C(N)=O` (H-TPQRARRRKKRK-NH2) the figure was over 100 nM; with `CC(C)C[C@H](NC(=O)[C@H](CCCNC(=N)N)NC(=O)[C@H](CCCCN)NC(=O)[C@H](CCCCN)NC(=O)[C@H](CCCNC(=N)N)NC(=O)[C@H](CCCNC(=N)N)NC(=O)[C@H](CCCNC(=N)N)NC(=O)[C@H](C)NC(=O)[C@H](CCCNC(=N)N)NC(=O)[C@H](CCC(N)=O)NC(=O)[C@@H]1CCCN1C(=O)[C@@H](N)[C@@H](C)O)C(N)=O` (H-TPQRARRRKKRL-NH2), over 100 nM.
The value for `CSCC[C@H](NC(=O)[C@H](CCCNC(=N)N)NC(=O)[C@H](CCCCN)NC(=O)[C@H](CCCCN)NC(=O)[C@H](CCCNC(=N)N)NC(=O)[C@H](CCCNC(=N)N)NC(=O)[C@H](CCCNC(=N)N)NC(=O)[C@H](C)NC(=O)[C@H](CCCNC(=N)N)NC(=O)[C@H](CCC(N)=O)NC(=O)[C@@H]1CCCN1C(=O)[C@@H](N)[C@@H](C)O)C(N)=O` (H-TPQRARRRKKRM-NH2) was 58 nM; that for `C[C@H](NC(=O)[C@H](CCCNC(=N)N)NC(=O)[C@H](CCC(N)=O)NC(=O)[C@@H]1CCCN1C(=O)[C@@H](N)[C@@H](C)O)C(=O)N[C@@H](CCCNC(=N)N)C(=O)N[C@@H](CCCNC(=N)N)C(=O)N[C@@H](CCCNC(=N)N)C(=O)N[C@@H](CCCCN)C(=O)N[C@@H](CCCCN)C(=O)N[C@@H](CCCNC(=N)N)C(=O)N[C@@H](CC(N)=O)C(N)=O` (H-TPQRARRRKKRN-NH2) was over 100 nM.
Turning to `C[C@H](NC(=O)[C@H](CCCNC(=N)N)NC(=O)[C@H](CCC(N)=O)NC(=O)[C@@H]1CCCN1C(=O)[C@@H](N)[C@@H](C)O)C(=O)N[C@@H](CCCNC(=N)N)C(=O)N[C@@H](CCCNC(=N)N)C(=O)N[C@@H](CCCNC(=N)N)C(=O)N[C@@H](CCCCN)C(=O)N[C@@H](CCCCN)C(=O)N[C@@H](CCCNC(=N)N)C(=O)N1CCC[C@H]1C(N)=O` (H-TPQRARRRKKRP-NH2), the Ki is over 100 nM.
Consider `C[C@H](NC(=O)[C@H](CCCNC(=N)N)NC(=O)[C@H](CCC(N)=O)NC(=O)[C@@H]1CCCN1C(=O)[C@@H](N)[C@@H](C)O)C(=O)N[C@@H](CCCNC(=N)N)C(=O)N[C@@H](CCCNC(=N)N)C(=O)N[C@@H](CCCNC(=N)N)C(=O)N[C@@H](CCCCN)C(=O)N[C@@H](CCCCN)C(=O)N[C@@H](CCCNC(=N)N)C(=O)N[C@@H](CCC(N)=O)C(N)=O` (H-TPQRARRRKKRQ-NH2), for which the Ki is over 100 nM.
The value for `C[C@H](NC(=O)[C@H](CCCNC(=N)N)NC(=O)[C@H](CCC(N)=O)NC(=O)[C@@H]1CCCN1C(=O)[C@@H](N)[C@@H](C)O)C(=O)N[C@@H](CCCNC(=N)N)C(=O)N[C@@H](CCCNC(=N)N)C(=O)N[C@@H](CCCNC(=N)N)C(=O)N[C@@H](CCCCN)C(=O)N[C@@H](CCCCN)C(=O)N[C@@H](CCCNC(=N)N)C(=O)N[C@@H](CCCNC(=N)N)C(N)=O` (H-TPQRARRRKKRR-NH2) was over 100 nM; that for `C[C@H](NC(=O)[C@H](CCCNC(=N)N)NC(=O)[C@H](CCC(N)=O)NC(=O)[C@@H]1CCCN1C(=O)[C@@H](N)[C@@H](C)O)C(=O)N[C@@H](CCCNC(=N)N)C(=O)N[C@@H](CCCNC(=N)N)C(=O)N[C@@H](CCCNC(=N)N)C(=O)N[C@@H](CCCCN)C(=O)N[C@@H](CCCCN)C(=O)N[C@@H](CCCNC(=N)N)C(=O)N[C@@H](CO)C(N)=O` (H-TPQRARRRKKRS-NH2) was over 100 nM; that for `C[C@H](NC(=O)[C@H](CCCNC(=N)N)NC(=O)[C@H](CCC(N)=O)NC(=O)[C@@H]1CCCN1C(=O)[C@@H](N)[C@@H](C)O)C(=O)N[C@@H](CCCNC(=N)N)C(=O)N[C@@H](CCCNC(=N)N)C(=O)N[C@@H](CCCNC(=N)N)C(=O)N[C@@H](CCCCN)C(=O)N[C@@H](CCCCN)C(=O)N[C@@H](CCCNC(=N)N)C(=O)N[C@H](C(N)=O)[C@@H](C)O` (H-TPQRARRRKKRT-NH2) was 33 nM.
With `CC(C)[C@H](NC(=O)[C@H](CCCNC(=N)N)NC(=O)[C@H](CCCCN)NC(=O)[C@H](CCCCN)NC(=O)[C@H](CCCNC(=N)N)NC(=O)[C@H](CCCNC(=N)N)NC(=O)[C@H](CCCNC(=N)N)NC(=O)[C@H](C)NC(=O)[C@H](CCCNC(=N)N)NC(=O)[C@H](CCC(N)=O)NC(=O)[C@@H]1CCCN1C(=O)[C@@H](N)[C@@H](C)O)C(N)=O` (H-TPQRARRRKKRV-NH2) the figure was 48 nM; with `C[C@H](NC(=O)[C@H](CCCNC(=N)N)NC(=O)[C@H](CCC(N)=O)NC(=O)[C@@H]1CCCN1C(=O)[C@@H](N)[C@@H](C)O)C(=O)N[C@@H](CCCNC(=N)N)C(=O)N[C@@H](CCCNC(=N)N)C(=O)N[C@@H](CCCNC(=N)N)C(=O)N[C@@H](CCCCN)C(=O)N[C@@H](CCCCN)C(=O)N[C@@H](CCCNC(=N)N)C(=O)N[C@@H](Cc1c[nH]c2ccccc12)C(N)=O` (H-TPQRARRRKKRW-NH2), 34 nM.
Take `C[C@H](NC(=O)[C@H](CCCNC(=N)N)NC(=O)[C@H](CCC(N)=O)NC(=O)[C@@H]1CCCN1C(=O)[C@@H](N)[C@@H](C)O)C(=O)N[C@@H](CCCNC(=N)N)C(=O)N[C@@H](CCCNC(=N)N)C(=O)N[C@@H](CCCNC(=N)N)C(=O)N[C@@H](CCCCN)C(=O)N[C@@H](CCCCN)C(=O)N[C@@H](CCCNC(=N)N)C(=O)N[C@@H](Cc1ccc(O)cc1)C(N)=O` (H-TPQRARRRKKRY-NH2): the Ki turned out to be 47 nM.
Consider `C[C@H](NC(=O)[C@H](CCCNC(=N)N)NC(=O)[C@H](CCC(N)=O)NC(=O)[C@@H]1CCCN1C(=O)[C@@H](N)[C@@H](C)O)C(=O)N[C@@H](CCCNC(=N)N)C(=O)N[C@@H](CCCNC(=N)N)C(=O)N[C@@H](CCCNC(=N)N)C(=O)N[C@@H](CCCCN)C(=O)N[C@@H](CCCCN)C(=O)N[C@@H](CCCNC(=N)N)C(=O)NCCCCCC(N)=O` (H-TPQRARRRKKR[Ahx]-NH2), for which the Ki was over 100 nM.
The value for `CCCC[C@H](NC(=O)[C@H](CCCNC(=N)N)NC(=O)[C@H](CCCCN)NC(=O)[C@H](CCCCN)NC(=O)[C@H](CCCNC(=N)N)NC(=O)[C@H](CCCNC(=N)N)NC(=O)[C@H](CCCNC(=N)N)NC(=O)[C@H](C)NC(=O)[C@H](CCCNC(=N)N)NC(=O)[C@H](CCC(N)=O)NC(=O)[C@@H]1CCCN1C(=O)[C@@H](N)[C@@H](C)O)C(N)=O` (H-TPQRARRRKKR[Nle]-NH2) was over 100 nM; that for `C[C@H](NC(=O)[C@H](CCCNC(=N)N)NC(=O)[C@H](CCC(N)=O)NC(=O)[C@@H]1CCCN1C(=O)[C@@H](N)[C@@H](C)O)C(=O)N[C@@H](CCCNC(=N)N)C(=O)N[C@@H](CCCNC(=N)N)C(=O)N[C@@H](CCCNC(=N)N)C(=O)N[C@@H](CCCCN)C(=O)N[C@@H](CCCCN)C(=O)N[C@@H](CCCNC(=N)N)C(=O)N[C@H](CCCCN)C(N)=O` (H-TPQRARRRKKR[dK]-NH2) was over 100 nM.
Take `C[C@H](NC(=O)[C@H](CCCNC(=N)N)NC(=O)[C@H](CCC(N)=O)NC(=O)[C@@H]1CCCN1C(=O)[C@@H](N)[C@@H](C)O)C(=O)N[C@@H](CCCNC(=N)N)C(=O)N[C@@H](CCCNC(=N)N)C(=O)N[C@@H](CCCNC(=N)N)C(=O)N[C@@H](CCCCN)C(=O)N[C@@H](CCCCN)C(=O)N[C@@H](CCCNC(=N)N)C(=O)N[C@H](CCCNC(=N)N)C(N)=O` (H-TPQRARRRKKR[dR]-NH2): the Ki was over 100 nM.
The value for `C[C@H](NC(=O)[C@H](CCCNC(=N)N)NC(=O)[C@H](CCC(N)=O)NC(=O)[C@@H]1CCCN1C(=O)[C@@H](N)[C@@H](C)O)C(=O)N[C@@H](CCCNC(=N)N)C(=O)N[C@@H](CCCNC(=N)N)C(=O)N[C@@H](CCCNC(=N)N)C(=O)N[C@@H](CCCCN)C(=O)N[C@@H](CCCCN)C(=O)N[C@@H](CCCNC(=N)N)C(=O)NCCC(N)=O` (H-TPQRARRRKKR[βAla]-NH2) was over 100 nM.
As for `C[C@@H](O)[C@H](N)C(=O)N1CCC[C@H]1C(=O)N[C@@H](CCC(N)=O)C(=O)N[C@@H](CCCNC(=N)N)C(=O)N[C@@H](CC(=O)O)C(=O)N[C@@H](CCCNC(=N)N)C(=O)N[C@@H](CCCNC(=N)N)C(=O)N[C@@H](CCCNC(=N)N)C(=O)N[C@@H](CCCCN)C(=O)N[C@@H](CCCCN)C(=O)N[C@@H](CCCNC(=N)N)C(=O)NCC(N)=O` (H-TPQRDRRRKKRG-NH2), the Ki is over 100 nM.
